Patent US6514911B1, “Substituted oxadiazines useful as pesticides” (Uniroyal Chemical Company, Inc., priority 2002, dated 2003)

Columns and labels:
Type in all cases: in vivo
[1] = test system: velvetleaf (Abutilon theophrasti Medik.) (VL); assay: Preemergence herbicide test, soil drench, velvetleaf; conditions: 10 lbs/A (11.2 kg/ha) soil drench, two weeks after treatment, vs untreated checks; for pest or weed control at 11208.5 g/ha: Abutilon theophrasti, 336 h, read-out: Percent Weed Control VL
Method: (§1) To illustrate the effectiveness of the previously described substituted oxadiazines of this invention as preemergence herbicides, 300 mg of the chemical was dissolved in a composition comprising 10 mL acetone to which 30 mg of tile emulsifying agent, ethoxylated sorbitan monolaurate, was added. The solution was diluted to 100 mL with distilled water. Ten milliliters of this 3000 ppm solution was diluted to 250 ppm with distilled water. The chemical was applied at the rate of 10 pounds/acre (11.2 kg/ha) by drenchings 46 mL of the 250 ppm solution on the surface of soil in 4½ inch (11.25 cm) plastic pots wherein seeds of the following weeds had been planted: velvetleaf (Abutilon theophrasti Medik.) (VL), The percent control of the weeds compared to untreated checks was determined two weeks after treatment. TABLE 1 summarizes the results achieved with compounds formulated as indicated above, and the data clearly indicate the good to excellent herbicidal efficacy of compositions of this invention.

[2] = test system: prickly sida (Sida spinosa L.) (PS); assay: Preemergence herbicide test, soil drench, prickly sida; conditions: two weeks after treatment
Method: To illustrate the effectiveness of the previously described substituted oxadiazines of this invention as preemergence herbicides, 300 mg of the chemical was dissolved in a composition comprising 10 mL acetone to which 30 mg of tile emulsifying agent, ethoxylated sorbitan monolaurate, was added. The solution was diluted to 100 mL with distilled water. Ten milliliters of this 3000 ppm solution was diluted to 250 ppm with distilled water. […]
prickly sida (Sida spinosa L.) (PS),
(§2) The percent control of the weeds compared to untreated checks was determined two weeks after treatment. TABLE 1 summarizes the results achieved with compounds formulated as indicated above, and the data clearly indicate the good to excellent herbicidal efficacy of compositions of this invention.

[3] = test system: tall morningglory (Ipomoea purpurea (L.) Roth) (TM); assay: Preemergence herbicide test, soil drench, tall morningglory; conditions: 10 lbs/A (11.2 kg/ha) soil drench, two weeks after treatment, vs untreated checks; for pest or weed control at 11208.5 g/ha: Ipomoea, 336 h, read-out: Percent Weed Control TM
Method: as §1, with “tall morningglory (Ipomoea purpurea (L.) Roth) (TM),” for “velvetleaf (Abutilon theophrasti Medik.) (VL),”

[4] = test system: barnyardgrass (Echinochloa crus-galli (L.) Beauv.) (BG); assay: Preemergence herbicide test, soil drench, barnyardgrass; conditions: two weeks after treatment
Method: as §1, with “barnyardgrass (Echinochloa crus-galli (L.) Beauv.) (BG), and” for “velvetleaf (Abutilon theophrasti Medik.) (VL),”

[5] = test system: switchgrass (Panicum virgahim L.) (SG); assay: Preemergence herbicide test, soil drench, switchgrass; conditions: two weeks after treatment; for Percent Weed Control SG / pest or weed control at 11208.5 g/ha: 10 lbs/A (11.2 kg/ha) soil drench, vs untreated checks
Method: as §1, with “planted:” for “planted: velvetleaf (Abutilon theophrasti Medik.) (VL), The percent control of the weeds compared to untreated checks was determined two weeks after treatment. TABLE 1 summarizes the results achieved with compounds formulated as indicated above, and the data clearly indicate the good to excellent herbicidal efficacy of compositions of this invention.”
switchgrass (Panicum virgahim L.) (SG),
as §2

[6] = test system: green foxtail (Setaria virdis (L.) Beauv.) (GF); assay: Preemergence herbicide test, soil drench, green foxtail; conditions: two weeks after treatment
Method: as §1, with “41⁄2” for “4½”, “green foxtail (Setaria […].) Beauv.) (GF).” for “velvetleaf (Abutilon theophrasti Medik.) (VL),”

[7] = 10 lbs/A (11.2 kg/ha) soil drench, vs untreated checks
[8] = Sida spinosa, 336 h, 10 lbs/A (11.2 kg/ha) soil drench, vs untreated checks, read-out: Percent Weed Control PS
[9] = Echinochloa crus-galli, 336 h, 10 lbs/A (11.2 kg/ha) soil drench, vs untreated checks, read-out: Percent Weed Control BG
[10] = Panicum, 336 h, read-out: Percent Weed Control SG
[11] = Setaria, 336 h, 10 lbs/A (11.2 kg/ha) soil drench, vs untreated checks, read-out: Percent Weed Control GF
[12] = 5 lbs/A (footnote for 32 and 33)

Structure (SMILES)	pest or weed control at 11208.5 g/ha [1] [%]	pest or weed control at 11208.5 g/ha [2, 8] [%]	pest or weed control at 11208.5 g/ha [3] [%]	pest or weed control at 11208.5 g/ha [4, 9] [%]	pest or weed control at 11208.5 g/ha [5, 10] [%]	pest or weed control at 11208.5 g/ha [6, 11] [%]	other results
FC(F)(F)c1ccc(C2=NC(C(F)(F)F)(C(F)(F)F)N=C(C(F)(F)C(F)(F)C(F)(F)F)O2)cc1 [Compound 30, 2-(heptafluoropropyl)-4,4-bis(trifluoromethyl)-6-{(4-trifluoromethyl)phenyl}-4H-1,3,5-oxadiazine]							Percent Weed Control VL [1]: 100%; Percent Weed Control PS [2, 7]: 100%; Percent Weed Control TM [3]: 100%; Percent Weed Control BG [4, 7]: 100%; Percent Weed Control SG [5]: 100%; Percent Weed Control GF [6, 7]: 100%
Nc1ccc(C2=NC(C(F)(F)F)(C(F)(F)F)N=C(C(F)(F)F)O2)cc1 [Compound 9, 2-(4-aminophenyl)-4,4,6-tris(trifluoromethyl)-4H-1,3,5-oxadiazine]	90	0	0	0	90	90	
FC(F)(F)Oc1ccc(C2=NC(C(F)(F)F)(C(F)(F)F)N=C(C(F)(F)F)O2)cc1 [Compound 8, 2-{4-(trifluoromethoxy)phenyl}-4,4,6-tris(trifluoromethyl)-4H-1,3,5-oxadiazine]	100	100	100	100	100	100	
FC(F)(F)C(F)(F)C(F)(F)C1=NC(C(F)(F)F)(C(F)(F)F)N=C(c2ccc(Br)cc2)O1 [Compound 27, 2-(4-bromophenyl)-6-(heptafluoropropyl)-4,4-bis(trifluoromethyl)-4H-1,3,5-oxadiazine]	100	100	95	0	0	0	
O=Cc1ccc(C2=NC(C(F)(F)F)(C(F)(F)F)N=C(C(F)(F)C(F)(F)F)O2)cc1 [Compound 31, 4-{6-(pentafluoroethyl)-4,4-bis(trifluoromethyl)-4H-1,3,5-oxadiazin-2-yl}-benzaldehyde]				100			
FC(F)(F)c1ccc(C2=NC(C(F)(F)F)(C(F)(F)F)N=C(C(F)(F)C(F)(F)F)O2)cc1 [Compound 15]							Percent Weed Control VL [1]: 100%; Percent Weed Control PS [2, 7]: 100%; Percent Weed Control TM [3]: 100%; Percent Weed Control BG [4, 7]: 100%; Percent Weed Control SG [5]: 100%; Percent Weed Control GF [6, 7]: 100%
Fc1ccc(C2=NC(C(F)(F)F)(C(F)(F)F)N=C(C(F)(F)C(F)(F)C(F)(F)F)O2)cc1 [Compound 28, 2-(4-fluorophenyl)-6-(heptafluoropropyl)-4,4-bis(trifluoromethyl)-4H-1,3,5-oxadiazine]	100	100	100	0	0	0	
FC(F)(F)C1=NC(C(F)(F)F)(C(F)(F)F)N=C(c2ccc(Br)cc2)O1 [Compound 2, 2-(4-bromophenyl)-4,4,6-tris(trifluoromethyl)-4H-1,3,5-oxadiazine]	100	100	100	100	100	100	
O=[N+]([O-])c1ccc(C2=NC(C(F)(F)F)(C(F)(F)F)N=C(C(F)(F)F)O2)cc1 [Compound 10, 2-(4-nitrophenyl)-4,4,6-tris(trifluoromethyl)-4H-1,3,5-oxadiazine]	80	80	50	80	80	80	
Fc1ccc(C2=NC(C(F)(F)F)(C(F)(F)F)N=C(C(F)(F)C(F)(F)F)O2)cc1 [Compound 17, 2-(4-fluorophenyl)-6-(pentafluoroethyl)-4,4-bis(trifluoromethyl)-4H-1,3,5-oxadiazine]	100	100	100	100	50	50	
Fc1cc(F)cc(C2=NC(C(F)(F)F)(C(F)(F)F)N=C(C(F)(F)C(F)(F)F)O2)c1 [Compound 19, 2-(3,5-difluorophenyl)-6-(pentafluoroethyl)-4,4-bis(trifluoromethyl)-4H-1,3,5-oxadiazine]	100	100	100	100	100	100	
FC(F)C1=NC(C(F)(F)F)(C(F)(F)F)N=C(c2cccc(C(F)(F)F)c2)O1 [Compound 32, 2-(difluoromethyl)-4,4-bis(trifluoromethyl)-6-(3-trifluoromethylphenyl)-4H-1,3,5-oxadiazine]							pest or weed control at 5604.25 g/ha ([2]; Sida spinosa, pre-emergence, 336 h, 5 lbs/A (footnote for 32 and 33), read-out: Percent Weed Control PS): 100%; pest or weed control at 5604.25 g/ha ([4]; Echinochloa crus-galli, pre-emergence, 336 h, 5 lbs/A (footnote for 32 and 33), read-out: Percent Weed Control BG): 80%; pest or weed control at 5604.25 g/ha ([5]; Panicum, pre-emergence, 336 h, 5 lbs/A (footnote for 32 and 33), read-out: Percent Weed Control SG): 0%; pest or weed control at 5604.25 g/ha ([6]; Setaria, pre-emergence, 336 h, 5 lbs/A (footnote for 32 and 33), read-out: Percent Weed Control GF): 100%
FC(F)C1=NC(C(F)(F)F)(C(F)(F)F)N=C(c2ccc(C(F)(F)F)cc2)O1 [Compound 33, 21-(dfluoromethyl)-4,4-bis(trifluoromethyl)-6-(4-trifluoromethylphenyl)-4H-1,3,5-oxadiazine]							Percent Weed Control PS [2, 12]: 100%; Percent Weed Control BG [4, 12]: 20%; Percent Weed Control GF [6, 12]: 40%
